Test results published in PMC4201332 (ACS Chemical Biology, 2014).
Values belong to the compound of their own block, whether it stands above or below them.

Tests used:
hmGlu1 = hmGlu1 (Homo sapiens, UniProt Q13255); assay: Calcium mobilization mGlu1 PAM potency assay; type: cell-based; conditions: for Emax: T-REx-293, read-out: hmGlu1 % Glu Max (±SEM)
mGlu1 WT receptor [1] = target: T1, mGlu1 WT receptor (Homo sapiens, UniProt Q13255); type: cell-based; conditions: 10 μM PAM
[2] = test system: amphetamine-induced hyperlocomotion in WT rats; assay: Amphetamine-induced hyperlocomotion; type: in vivo, rat; conditions: doses up to 100 mg/kg i.p.
hmGlu4 = hmGlu4 (Homo sapiens, UniProt Q14833); assay: Calcium mobilization mGlu4 assay; type: cell-based
Chain of hmGlu4 (Q14833 33-912): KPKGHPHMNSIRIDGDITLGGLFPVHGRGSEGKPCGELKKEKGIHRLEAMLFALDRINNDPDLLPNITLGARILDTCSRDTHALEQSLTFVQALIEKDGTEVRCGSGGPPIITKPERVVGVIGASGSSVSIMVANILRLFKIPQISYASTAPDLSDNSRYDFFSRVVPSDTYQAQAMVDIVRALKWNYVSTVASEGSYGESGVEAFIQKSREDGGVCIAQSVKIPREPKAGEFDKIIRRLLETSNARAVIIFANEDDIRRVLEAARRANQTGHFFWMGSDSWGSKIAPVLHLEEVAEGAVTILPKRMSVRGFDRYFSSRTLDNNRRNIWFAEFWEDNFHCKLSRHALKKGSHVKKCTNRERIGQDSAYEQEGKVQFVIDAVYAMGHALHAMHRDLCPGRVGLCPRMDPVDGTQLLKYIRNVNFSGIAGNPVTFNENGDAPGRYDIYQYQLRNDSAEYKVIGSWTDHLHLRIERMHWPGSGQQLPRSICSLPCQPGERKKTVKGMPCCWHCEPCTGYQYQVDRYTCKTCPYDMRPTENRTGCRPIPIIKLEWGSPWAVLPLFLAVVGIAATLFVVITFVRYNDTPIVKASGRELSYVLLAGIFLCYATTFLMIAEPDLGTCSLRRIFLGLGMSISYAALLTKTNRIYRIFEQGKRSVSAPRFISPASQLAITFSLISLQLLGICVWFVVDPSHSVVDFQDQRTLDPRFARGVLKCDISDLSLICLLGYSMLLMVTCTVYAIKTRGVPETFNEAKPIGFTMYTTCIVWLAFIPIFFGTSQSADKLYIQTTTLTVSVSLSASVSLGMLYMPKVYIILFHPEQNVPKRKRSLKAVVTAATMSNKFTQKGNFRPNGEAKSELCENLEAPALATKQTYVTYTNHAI

mGlu1 WT receptor [3] = target: T1, mGlu1 WT receptor; type: cell-based
mGlu1 Sz mutants = assay: Calcium mobilization in stable cell lines expressing schizophrenia; type: cell-based, human
mGlu1 K563N mutant = mGlu1 K563N mutant (Homo sapiens, UniProt Q13255, K563N); assay: Calcium mobilization in stable Sz mutant cell line; type: cell-based; conditions: agonist DHPG
Chain of mGlu1 K563N mutant (Q13255 19-1194 K563N): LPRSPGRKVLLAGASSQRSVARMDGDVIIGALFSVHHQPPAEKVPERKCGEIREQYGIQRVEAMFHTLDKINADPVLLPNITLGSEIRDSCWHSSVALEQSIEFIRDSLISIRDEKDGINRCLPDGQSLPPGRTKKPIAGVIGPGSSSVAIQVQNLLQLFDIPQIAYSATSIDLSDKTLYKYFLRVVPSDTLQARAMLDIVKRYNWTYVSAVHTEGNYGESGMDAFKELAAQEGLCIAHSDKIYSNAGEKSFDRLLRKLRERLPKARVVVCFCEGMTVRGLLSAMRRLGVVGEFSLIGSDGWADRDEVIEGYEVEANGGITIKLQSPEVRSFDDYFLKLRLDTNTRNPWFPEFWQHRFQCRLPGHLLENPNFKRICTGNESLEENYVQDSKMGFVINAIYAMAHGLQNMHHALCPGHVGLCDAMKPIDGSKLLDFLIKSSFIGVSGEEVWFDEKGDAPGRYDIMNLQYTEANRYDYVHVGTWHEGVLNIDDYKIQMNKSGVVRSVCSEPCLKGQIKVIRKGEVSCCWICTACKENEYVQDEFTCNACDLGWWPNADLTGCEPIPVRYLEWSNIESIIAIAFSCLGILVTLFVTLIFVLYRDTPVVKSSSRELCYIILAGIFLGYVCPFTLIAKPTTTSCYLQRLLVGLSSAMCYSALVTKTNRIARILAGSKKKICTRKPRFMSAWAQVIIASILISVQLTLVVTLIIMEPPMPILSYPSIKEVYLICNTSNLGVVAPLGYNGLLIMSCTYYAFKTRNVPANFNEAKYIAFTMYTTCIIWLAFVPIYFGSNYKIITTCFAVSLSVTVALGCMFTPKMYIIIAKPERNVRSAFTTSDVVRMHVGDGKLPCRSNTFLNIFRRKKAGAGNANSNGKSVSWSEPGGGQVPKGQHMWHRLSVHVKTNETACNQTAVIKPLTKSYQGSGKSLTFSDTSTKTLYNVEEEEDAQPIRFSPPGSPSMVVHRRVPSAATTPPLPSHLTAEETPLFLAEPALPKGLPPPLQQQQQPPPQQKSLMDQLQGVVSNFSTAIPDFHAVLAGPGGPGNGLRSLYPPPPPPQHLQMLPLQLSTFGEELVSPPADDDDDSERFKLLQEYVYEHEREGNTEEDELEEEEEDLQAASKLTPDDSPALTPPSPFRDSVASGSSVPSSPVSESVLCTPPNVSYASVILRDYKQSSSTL

mGlu1 P1015A mutant = mGlu1 P1015A mutant (Homo sapiens, UniProt Q13255, P1015A); assay: Calcium mobilization in stable Sz mutant cell line; type: cell-based; conditions: agonist DHPG
Chain of mGlu1 P1015A mutant (Q13255 19-1194 P1015A): as the sequence (Q13255 19-1194 K563N) above, with N545K, P997A counted along it

CYP1A2 = target: T2, CYP1A2 (Homo sapiens, UniProt P05177); assay: Cytochrome P450 inhibition; type: in vitro ADME
T2 sequence (P05177 1-516): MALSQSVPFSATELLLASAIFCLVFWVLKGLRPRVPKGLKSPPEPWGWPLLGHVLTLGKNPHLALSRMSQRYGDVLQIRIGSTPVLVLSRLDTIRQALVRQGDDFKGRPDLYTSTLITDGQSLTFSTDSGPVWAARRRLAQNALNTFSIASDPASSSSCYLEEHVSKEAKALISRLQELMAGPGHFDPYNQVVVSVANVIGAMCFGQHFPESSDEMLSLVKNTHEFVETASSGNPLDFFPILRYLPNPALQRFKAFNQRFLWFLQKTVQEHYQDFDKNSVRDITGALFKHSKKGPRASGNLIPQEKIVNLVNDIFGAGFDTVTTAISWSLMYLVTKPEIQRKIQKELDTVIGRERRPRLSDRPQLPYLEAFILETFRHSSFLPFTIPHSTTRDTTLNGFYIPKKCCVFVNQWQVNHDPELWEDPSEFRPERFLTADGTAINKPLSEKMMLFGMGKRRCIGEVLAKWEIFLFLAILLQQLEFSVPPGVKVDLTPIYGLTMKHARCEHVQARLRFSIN

CYP2D6 = CYP2D6 (Homo sapiens, UniProt P10635); assay: Cytochrome P450 inhibition; type: in vitro ADME
Chain of CYP2D6 (P10635 whole entry): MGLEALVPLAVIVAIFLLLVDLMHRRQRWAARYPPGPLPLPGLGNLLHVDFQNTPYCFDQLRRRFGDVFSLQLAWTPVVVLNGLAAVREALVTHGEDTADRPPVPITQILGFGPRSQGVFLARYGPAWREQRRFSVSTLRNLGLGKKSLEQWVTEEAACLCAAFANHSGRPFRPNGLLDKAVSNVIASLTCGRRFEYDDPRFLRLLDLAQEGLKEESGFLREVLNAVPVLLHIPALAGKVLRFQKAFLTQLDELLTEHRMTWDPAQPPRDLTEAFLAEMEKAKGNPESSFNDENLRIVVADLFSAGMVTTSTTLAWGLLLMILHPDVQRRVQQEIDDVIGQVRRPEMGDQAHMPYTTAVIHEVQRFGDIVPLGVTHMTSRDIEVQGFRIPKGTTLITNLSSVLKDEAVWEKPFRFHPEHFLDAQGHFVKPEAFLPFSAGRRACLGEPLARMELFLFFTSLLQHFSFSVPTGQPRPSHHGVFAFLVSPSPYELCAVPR

CYP3A4 = CYP3A4 (Homo sapiens, UniProt P08684); assay: Cytochrome P450 inhibition; type: in vitro ADME
Chain of CYP3A4 (P08684 whole entry): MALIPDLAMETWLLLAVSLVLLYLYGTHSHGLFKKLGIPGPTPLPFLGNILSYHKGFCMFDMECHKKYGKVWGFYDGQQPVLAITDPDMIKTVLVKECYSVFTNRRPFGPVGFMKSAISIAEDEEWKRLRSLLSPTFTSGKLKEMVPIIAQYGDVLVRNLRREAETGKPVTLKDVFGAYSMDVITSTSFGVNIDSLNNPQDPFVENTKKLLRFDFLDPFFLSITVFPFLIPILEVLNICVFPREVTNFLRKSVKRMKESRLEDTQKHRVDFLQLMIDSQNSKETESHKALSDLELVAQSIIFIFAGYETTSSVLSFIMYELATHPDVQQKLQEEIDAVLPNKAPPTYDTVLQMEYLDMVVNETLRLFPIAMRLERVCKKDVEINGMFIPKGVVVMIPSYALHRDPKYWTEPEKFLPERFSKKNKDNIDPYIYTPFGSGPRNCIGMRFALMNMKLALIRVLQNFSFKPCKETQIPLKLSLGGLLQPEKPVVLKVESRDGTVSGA

CYP2C9 = CYP2C9 (Homo sapiens, UniProt P11712); assay: Cytochrome P450 inhibition; type: in vitro ADME
Chain of CYP2C9 (P11712 whole entry): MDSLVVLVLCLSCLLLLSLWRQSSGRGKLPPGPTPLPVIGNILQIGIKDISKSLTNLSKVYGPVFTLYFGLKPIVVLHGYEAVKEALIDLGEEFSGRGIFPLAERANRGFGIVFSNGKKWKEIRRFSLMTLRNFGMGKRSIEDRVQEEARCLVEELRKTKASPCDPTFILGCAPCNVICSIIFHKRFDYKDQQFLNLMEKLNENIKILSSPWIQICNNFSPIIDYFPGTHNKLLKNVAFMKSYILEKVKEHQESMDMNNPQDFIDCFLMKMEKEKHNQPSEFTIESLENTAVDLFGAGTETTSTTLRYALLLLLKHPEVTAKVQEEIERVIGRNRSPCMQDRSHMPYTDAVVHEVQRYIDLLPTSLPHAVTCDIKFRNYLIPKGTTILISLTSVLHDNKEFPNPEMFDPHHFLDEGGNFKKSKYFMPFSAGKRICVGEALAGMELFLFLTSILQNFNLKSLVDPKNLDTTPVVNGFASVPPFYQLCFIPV

[4] = hmGlu1 EC50, calcium mobilization, average of n = 3 performed in triplicate

T1 sequence (Q13255 19-1194): as the sequence (Q13255 19-1194 K563N) above, with N545K counted along it
Chain of hmGlu1 (Q13255 19-1194): as the sequence (Q13255 19-1194 K563N) above, with N545K counted along it

- Emax (hmGlu1): 110 ± 21%
- EC50 (hmGlu1; [4]): 0.177 µM
Compound: Cc1cccc2c1C(=O)N(c1ccc(NC(=O)c3ncccc3Cl)cc1Cl)C2=O [24a]

- Emax (hmGlu1): 82 ± 4%
- EC50 (hmGlu1; [4]): 0.832 µM
Compound: Cc1ccc2c(c1)C(=O)N(c1ccc(NC(=O)c3ncccc3Cl)cc1Cl)C2=O [24b]

- Emax (hmGlu1): 117 ± 9%
- EC50 (hmGlu1; [4]): 1.14 µM
Compound: O=C(Nc1ccc(N2C(=O)c3cccc(F)c3C2=O)c(Cl)c1)c1ncccc1Cl [24e]

The next lines start with the compound.

Compound: Cc1cccnc1C(=O)Nc1ccc(N2C(=O)c3cccc(Cl)c3C2=O)c(Cl)c1 [23c]
- left-ward fold shift of the glutamate concentration response curve (mGlu1 WT receptor [1]): ~3 fold
- effect on amphetamine-induced hyperlocomotion [2]: behaved similarly
- hmGlu1 % Glu Max (±SEM) (hmGlu1; calcium mobilization): 126 ± 25%
- EC50 (hmGlu1; [4]): 0.372 µM
- EC50 (hmGlu1; hmGlu1 EC50, text and Figure 6): 0.37 µM
- EC50 (hmGlu4): 0.199 µM
- hmGlu4 % Glu Max (hmGlu4; calcium mobilization): 55%
- leftward fold shift of the DHPG concentration-response curve (mGlu1 WT receptor [3]; 10 μM PAM, WT mGlu1): 3.4 fold

Compound: N[C@@H](CCC(=O)O)C(=O)O [glutamate, L-glutamic acid]
- calcium response, % of the WT response (mGlu1 Sz mutants; agonist glutamate, mutants typically, except K563N and P1015A): 45–65%

Compound: N[C@H](C(=O)O)c1cc(O)cc(O)c1 [DHPG, (S)-3,5-dihydroxyphenylglycine]
- calcium response, % of WT (mGlu1 K563N mutant): ~110%
- calcium response, % of WT response (mGlu1 P1015A mutant): ~90%
- EC50 (mGlu1 WT receptor [3]): 2.5 µM
- calcium response, % of WT response (mGlu1 Sz mutants; agonist DHPG, majority of mutants, typically): 55–75%

Compound: Cc1cccnc1C(=O)Nc1ccc(N2C(=O)c3cccc(C)c3C2=O)c(Cl)c1 [23a]
- Emax (hmGlu1): 101 ± 7%
- EC50 (hmGlu1; [4]): 0.176 µM

Compound: O=C(Nc1ccc(N2C(=O)c3cccc(Cl)c3C2=O)c(Cl)c1)c1ncccc1Cl [24c, N-(3-chloro-4-(4-chloro-1,3-dioxoisoindolin-2-yl)phenyl)-3-chloropicolinamide]
- effect on amphetamine-induced hyperlocomotion [2]: no effect up to the highest dose
- IC50 (CYP1A2): > 30 µM
- hmGlu1 % Glu Max (±SEM) (hmGlu1; calcium mobilization): 110 ± 15%
- EC50 (hmGlu1; [4]): 0.391 µM
- EC50 (hmGlu1; hmGlu1 pEC50 (±SEM), calcium mobilization): 0.389 µM
- IC50 (CYP2D6): > 30 µM
- IC50 (CYP3A4): > 30 µM
- IC50 (CYP2C9): > 30 µM

Compound: Cc1ccc2c(c1)C(=O)N(c1ccc(NC(=O)c3ncccc3C)cc1Cl)C2=O [23b]
- Emax (hmGlu1): 130 ± 26%
- EC50 (hmGlu1; [4]): > 10 µM

Compound: Cc1cccnc1C(=O)Nc1ccc(N2C(=O)c3cccc(F)c3C2=O)c(Cl)c1 [23e]
- Emax (hmGlu1): 90 ± 15%
- EC50 (hmGlu1; [4]): 0.418 µM

Compound: Cc1cccnc1C(=O)Nc1ccc(N2C(=O)c3ccc(F)cc3C2=O)c(Cl)c1 [23f]
- EC50 (hmGlu1; [4]): > 10 µM
